Measurements published in PubChem BioAssay (NCI).
Values joined by “and” are separate entries in the source; they are usually repeats but may differ in a detail not shown here. Identical values can stand only once.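 Assay format: 96-well plates, 48-hour exposure. GI50 is the concentration that inhibits growth by half. TGI marks complete inhibition of growth.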

How the values were obtained:
Experiment in all cases: growth of human tumour cells (NCI), 48 h
A549 NSCLC = test system: A549 NSCLC
HCC-2998 colon = test system: HCC-2998 colon
HCT-116 colon = test system: HCT-116 colon
HL-60(TB) leukemia = test system: HL-60(TB) leukemia
HOP-92 NSCLC = test system: HOP-92 NSCLC
KM12 colon = test system: KM12 colon
NCI-H522 lung = test system: NCI-H522 lung
OVCAR-4 ovarian = test system: OVCAR-4 ovarian
SK-OV-3 ovarian = test system: SK-OV-3 ovarian
U251 CNS = test system: U251 CNS

| SMILES | TGI (A549 NSCLC) | TGI (HCC-2998 colon) | TGI (HCT-116 colon) | TGI (HL-60(TB) leukemia) | TGI (HOP-92 NSCLC) | TGI (KM12 colon) | TGI (NCI-H522 lung) | TGI (OVCAR-4 ovarian) | TGI (SK-OV-3 ovarian) | TGI (U251 CNS) | GI50 (SK-OV-3 ovarian) | GI50 (A549 NSCLC) | GI50 (HCC-2998 colon) | GI50 (HCT-116 colon) | GI50 (HL-60(TB) leukemia) | GI50 (HOP-92 NSCLC) | GI50 (KM12 colon) | GI50 (NCI-H522 lung) | GI50 (OVCAR-4 ovarian) | GI50 (U251 CNS) |
| --- | --- | --- | --- | --- | --- | --- | --- | --- | --- | --- | --- | --- | --- | --- | --- | --- | --- | --- | --- | --- |
| Cc1ccccc1-n1c(=S)[nH]c2c(sc(=O)n2-c2ccccc2C)c1=O | > 100 µM | > 100 µM | > 100 µM | > 100 µM | > 100 µM | > 100 µM | > 100 µM | > 100 µM | > 100 µM | > 100 µM |  |  |  |  |  |  |  |  |  |  |
| NC(N)=NC(N)=Nc1ccc(C(=O)O)cc1 | > 100 µM | > 100 µM | > 100 µM | > 100 µM | > 100 µM | > 100 µM | > 100 µM | > 100 µM | > 100 µM | > 100 µM |  |  |  |  |  |  |  |  |  |  |
| CC1=C(CO)C(=O)O[C@@H]([C@@H](C)[C@H]2CC[C@H]3[C@@H]4C[C@H]5O[C@]56[C@@H](O)C=CC(=O)[C@]6(C)[C@H]4CC[C@]23C)C1 | 3.96 µM | 1.56 µM | 0.538 µM | 0.821 µM | 1.46 µM | 1.82 µM | 0.114 µM | 1.8 µM | 13.8 µM | 1.52 µM | 3.93 µM |  |  |  |  |  |  |  |  |  |
| O=C(O)COc1ccc(OCC(=O)O)cc1 | 2.16 µM | 6.82 µM | 10.3 µM | 0.873 µM | 7.59 µM | 10.7 µM | 3.22 µM | 20.3 µM | 19.8 µM | 2.47 µM | 0.644 µM | 0.432 µM | 1.5 µM | 0.612 µM | 0.159 µM | 0.319 µM | 1.71 µM | 0.302 µM | 2.96 µM | 0.251 µM |
| Cc1nn(C)c2ncnc(N/N=C/c3cccc(O)c3O)c12 | > 100 µM | > 100 µM | > 100 µM | 1.43 µM | 13.8 µM | > 100 µM | > 48.2 µM | 23.4 µM | > 81 µM | > 100 µM | 2.24 µM | 2.11 µM | 0.853 µM | 0.568 µM | 0.322 µM | 0.747 µM | 0.392 µM | 0.41 µM | 0.378 µM | 0.513 µM |
| CC(=O)OCC1OC(n2c(=O)[nH]c(=O)c3n[nH]nc32)C(OC(C)=O)C(OC(C)=O)C1OC(C)=O (stereo not drawn) | > 100 µM | > 100 µM | > 100 µM | > 100 µM | > 100 µM |  | > 100 µM | > 100 µM | > 100 µM | > 100 µM |  |  |  |  |  |  |  |  |  |  |
| Cc1ccc2oc(=O)c3c(O)c4cccc(OC5OC(C)C6O[C@@H](c7ccccc7)OC6C5OC5OC(C)C(O)C(O)C5O)c4c4oc(=O)c1c2c34 (stereo partly drawn) | 0.521 µM and 0.924 µM | 1.72 µM |  | 0.7 µM and 0.361 µM | 2.22 µM and 2.13 µM | 1.43 µM and 1.92 µM | 0.294 µM and 1.38 µM | 3.53 µM | 0.967 µM and 2.41 µM | 1.16 µM and 1.58 µM | 0.371 µM | 0.0214 µM | 0.0747 µM | 0.0257 µM | 0.0418 µM | 0.333 µM | 0.0486 µM | 0.104 µM |  | 0.0825 µM |
| CC(C)C[C@H](NC(=O)Cn1cccc(CNC(=O)c2ccccc2)c1=O)B(O)O | > 100 µM | 2.57 µM | 2.65 µM | > 100 µM | 4.61 µM | 3 µM | 2.3 µM | > 77 µM | 41 µM | 19.2 µM | 1.2 µM | 4.54 µM | 0.893 µM | 0.337 µM | 0.653 µM | 0.638 µM | 0.649 µM | 0.377 µM | 0.897 µM | 0.517 µM |
